From ChEMBL document CHEMBL5291721, “A preclinical secondary pharmacology resource illuminates target-adverse drug reaction associations of marketed drugs” (Nat Commun, 2023)

Key:
[1] = target: T1, 5-hydroxytryptamine receptor 1A (Homo sapiens, UniProt P08908); format: functional, cell-based
T1 sequence (P08908 whole entry): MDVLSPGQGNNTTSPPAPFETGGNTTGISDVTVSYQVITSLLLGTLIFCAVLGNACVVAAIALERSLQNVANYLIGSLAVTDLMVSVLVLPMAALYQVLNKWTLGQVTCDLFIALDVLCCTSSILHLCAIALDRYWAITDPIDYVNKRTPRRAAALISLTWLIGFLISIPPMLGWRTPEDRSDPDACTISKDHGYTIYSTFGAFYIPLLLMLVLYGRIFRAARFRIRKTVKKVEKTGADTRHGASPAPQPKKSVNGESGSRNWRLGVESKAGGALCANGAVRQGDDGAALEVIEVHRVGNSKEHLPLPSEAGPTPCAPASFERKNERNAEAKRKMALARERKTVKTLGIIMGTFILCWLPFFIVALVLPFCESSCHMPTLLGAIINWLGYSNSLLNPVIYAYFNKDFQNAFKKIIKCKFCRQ

[2] = target: T2, Alpha-1A adrenergic receptor (Homo sapiens, UniProt P35348); format: functional, cell-based
T2 sequence (P35348 whole entry): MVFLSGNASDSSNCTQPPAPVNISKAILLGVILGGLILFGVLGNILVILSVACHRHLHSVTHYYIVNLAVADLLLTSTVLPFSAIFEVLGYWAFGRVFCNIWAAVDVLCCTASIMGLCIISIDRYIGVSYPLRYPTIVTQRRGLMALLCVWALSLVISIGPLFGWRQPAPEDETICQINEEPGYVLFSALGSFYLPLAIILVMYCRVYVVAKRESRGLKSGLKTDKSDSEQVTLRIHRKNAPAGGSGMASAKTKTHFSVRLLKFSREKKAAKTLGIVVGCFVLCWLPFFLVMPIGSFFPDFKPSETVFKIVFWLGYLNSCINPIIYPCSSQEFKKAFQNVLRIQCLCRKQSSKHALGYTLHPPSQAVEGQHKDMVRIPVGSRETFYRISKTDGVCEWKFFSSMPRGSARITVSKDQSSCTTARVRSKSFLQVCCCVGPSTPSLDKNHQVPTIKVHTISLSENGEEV

[3] = target: T3, Cholecystokinin receptor type A (Homo sapiens, UniProt P32238)
T3 sequence (P32238 whole entry): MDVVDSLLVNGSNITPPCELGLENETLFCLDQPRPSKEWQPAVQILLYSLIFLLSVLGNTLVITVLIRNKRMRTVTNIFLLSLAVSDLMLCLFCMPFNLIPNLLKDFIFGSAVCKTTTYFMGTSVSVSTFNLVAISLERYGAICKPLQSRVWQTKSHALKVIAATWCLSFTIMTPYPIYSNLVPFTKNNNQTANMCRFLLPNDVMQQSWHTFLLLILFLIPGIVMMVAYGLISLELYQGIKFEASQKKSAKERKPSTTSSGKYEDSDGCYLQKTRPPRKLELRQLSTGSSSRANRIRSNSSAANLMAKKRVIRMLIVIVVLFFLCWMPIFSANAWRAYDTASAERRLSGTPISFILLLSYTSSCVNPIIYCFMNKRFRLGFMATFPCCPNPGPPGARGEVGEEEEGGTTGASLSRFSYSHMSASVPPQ

[4] = target: T4, Prostaglandin G/H synthase 1 (Rattus norvegicus, UniProt Q63921); format: functional
T4 sequence (Q63921 whole entry): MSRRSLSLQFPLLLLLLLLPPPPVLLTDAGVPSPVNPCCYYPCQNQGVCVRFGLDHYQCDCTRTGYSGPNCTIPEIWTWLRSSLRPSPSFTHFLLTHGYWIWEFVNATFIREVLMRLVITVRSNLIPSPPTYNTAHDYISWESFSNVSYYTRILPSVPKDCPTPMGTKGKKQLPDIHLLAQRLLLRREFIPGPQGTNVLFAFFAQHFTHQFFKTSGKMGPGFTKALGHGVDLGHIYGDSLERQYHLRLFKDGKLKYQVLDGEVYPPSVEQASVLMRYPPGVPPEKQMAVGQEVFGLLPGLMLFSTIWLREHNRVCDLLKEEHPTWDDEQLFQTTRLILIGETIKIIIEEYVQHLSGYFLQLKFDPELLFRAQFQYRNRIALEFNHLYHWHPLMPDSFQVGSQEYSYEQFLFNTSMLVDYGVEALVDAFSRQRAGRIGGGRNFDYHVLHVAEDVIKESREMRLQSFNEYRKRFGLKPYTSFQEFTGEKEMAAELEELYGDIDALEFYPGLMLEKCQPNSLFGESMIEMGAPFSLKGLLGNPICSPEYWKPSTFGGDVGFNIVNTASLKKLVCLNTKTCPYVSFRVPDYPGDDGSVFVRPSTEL

[5] = target: 5-hydroxytryptamine receptor 2B (Homo sapiens, UniProt P41595); format: functional, cell-based
Sequence of 5-hydroxytryptamine receptor 2B (P41595 whole entry): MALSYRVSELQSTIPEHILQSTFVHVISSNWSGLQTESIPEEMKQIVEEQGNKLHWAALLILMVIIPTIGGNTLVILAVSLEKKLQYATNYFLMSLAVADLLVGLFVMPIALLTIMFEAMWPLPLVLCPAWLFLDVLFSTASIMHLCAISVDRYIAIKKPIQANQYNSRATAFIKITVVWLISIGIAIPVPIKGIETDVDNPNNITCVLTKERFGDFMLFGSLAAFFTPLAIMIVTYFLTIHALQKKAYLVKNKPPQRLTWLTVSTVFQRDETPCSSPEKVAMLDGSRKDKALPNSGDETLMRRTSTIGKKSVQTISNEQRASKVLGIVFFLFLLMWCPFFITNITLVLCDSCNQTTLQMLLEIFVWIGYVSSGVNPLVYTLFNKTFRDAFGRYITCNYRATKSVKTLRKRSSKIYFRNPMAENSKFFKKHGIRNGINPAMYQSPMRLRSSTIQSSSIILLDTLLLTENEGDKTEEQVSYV

Vasopressin V2 receptor = Vasopressin V2 receptor (Homo sapiens, UniProt P30518)
Sequence of Vasopressin V2 receptor (P30518 whole entry): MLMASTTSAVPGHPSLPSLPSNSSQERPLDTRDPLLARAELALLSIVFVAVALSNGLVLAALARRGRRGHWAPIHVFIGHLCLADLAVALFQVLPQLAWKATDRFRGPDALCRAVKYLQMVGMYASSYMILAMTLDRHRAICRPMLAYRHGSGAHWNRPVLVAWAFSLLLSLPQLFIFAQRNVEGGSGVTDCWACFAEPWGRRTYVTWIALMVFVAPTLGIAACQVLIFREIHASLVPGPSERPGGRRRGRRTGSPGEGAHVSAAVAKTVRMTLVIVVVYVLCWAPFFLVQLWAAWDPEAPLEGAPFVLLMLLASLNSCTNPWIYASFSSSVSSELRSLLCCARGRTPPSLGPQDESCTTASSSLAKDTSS

Vasopressin V1a receptor = Vasopressin V1a receptor (Homo sapiens, UniProt P37288)
Sequence of Vasopressin V1a receptor (P37288 whole entry): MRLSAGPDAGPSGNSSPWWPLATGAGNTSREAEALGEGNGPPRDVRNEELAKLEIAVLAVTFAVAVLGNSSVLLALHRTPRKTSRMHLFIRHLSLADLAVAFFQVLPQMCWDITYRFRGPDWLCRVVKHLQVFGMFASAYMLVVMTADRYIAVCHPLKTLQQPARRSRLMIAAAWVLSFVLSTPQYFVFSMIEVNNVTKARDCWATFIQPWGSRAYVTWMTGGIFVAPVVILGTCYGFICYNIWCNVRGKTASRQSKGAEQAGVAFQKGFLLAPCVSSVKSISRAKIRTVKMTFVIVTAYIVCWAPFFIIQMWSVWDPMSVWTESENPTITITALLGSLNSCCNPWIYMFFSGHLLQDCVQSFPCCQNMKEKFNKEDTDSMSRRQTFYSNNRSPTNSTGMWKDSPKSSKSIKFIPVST

[6] = target: T5, Alpha-2A adrenergic receptor (Homo sapiens, UniProt P08913); format: functional, cell-based
T5 sequence (P08913 whole entry): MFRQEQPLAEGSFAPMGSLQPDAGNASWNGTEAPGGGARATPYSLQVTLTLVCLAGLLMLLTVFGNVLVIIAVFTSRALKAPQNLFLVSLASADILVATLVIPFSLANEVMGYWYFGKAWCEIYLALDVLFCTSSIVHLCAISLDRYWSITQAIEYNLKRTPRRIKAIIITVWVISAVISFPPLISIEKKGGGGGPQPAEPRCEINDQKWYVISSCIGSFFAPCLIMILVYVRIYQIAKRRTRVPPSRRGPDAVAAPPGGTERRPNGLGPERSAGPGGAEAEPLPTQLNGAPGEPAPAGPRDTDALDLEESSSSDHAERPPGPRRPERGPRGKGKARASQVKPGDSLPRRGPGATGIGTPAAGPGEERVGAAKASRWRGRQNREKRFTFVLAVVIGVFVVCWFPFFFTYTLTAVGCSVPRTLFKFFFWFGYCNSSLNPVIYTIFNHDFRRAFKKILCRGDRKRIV

Histamine H2 receptor = Histamine H2 receptor (Homo sapiens, UniProt P25021); format: functional, cell-based
Sequence of Histamine H2 receptor (P25021 whole entry): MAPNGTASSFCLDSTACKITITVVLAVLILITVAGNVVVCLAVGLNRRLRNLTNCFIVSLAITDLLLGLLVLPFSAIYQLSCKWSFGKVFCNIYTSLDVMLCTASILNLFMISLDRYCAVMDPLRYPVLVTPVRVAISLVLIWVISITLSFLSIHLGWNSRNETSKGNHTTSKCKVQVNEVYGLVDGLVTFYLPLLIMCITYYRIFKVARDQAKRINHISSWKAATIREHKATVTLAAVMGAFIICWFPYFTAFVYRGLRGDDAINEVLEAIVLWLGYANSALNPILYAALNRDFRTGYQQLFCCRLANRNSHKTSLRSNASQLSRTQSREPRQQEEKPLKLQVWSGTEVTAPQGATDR

[7] = target: cGMP-inhibited 3',5'-cyclic phosphodiesterase 3A (Homo sapiens, UniProt Q14432); format: functional
Sequence of cGMP-inhibited 3',5'-cyclic phosphodiesterase 3A (Q14432 whole entry): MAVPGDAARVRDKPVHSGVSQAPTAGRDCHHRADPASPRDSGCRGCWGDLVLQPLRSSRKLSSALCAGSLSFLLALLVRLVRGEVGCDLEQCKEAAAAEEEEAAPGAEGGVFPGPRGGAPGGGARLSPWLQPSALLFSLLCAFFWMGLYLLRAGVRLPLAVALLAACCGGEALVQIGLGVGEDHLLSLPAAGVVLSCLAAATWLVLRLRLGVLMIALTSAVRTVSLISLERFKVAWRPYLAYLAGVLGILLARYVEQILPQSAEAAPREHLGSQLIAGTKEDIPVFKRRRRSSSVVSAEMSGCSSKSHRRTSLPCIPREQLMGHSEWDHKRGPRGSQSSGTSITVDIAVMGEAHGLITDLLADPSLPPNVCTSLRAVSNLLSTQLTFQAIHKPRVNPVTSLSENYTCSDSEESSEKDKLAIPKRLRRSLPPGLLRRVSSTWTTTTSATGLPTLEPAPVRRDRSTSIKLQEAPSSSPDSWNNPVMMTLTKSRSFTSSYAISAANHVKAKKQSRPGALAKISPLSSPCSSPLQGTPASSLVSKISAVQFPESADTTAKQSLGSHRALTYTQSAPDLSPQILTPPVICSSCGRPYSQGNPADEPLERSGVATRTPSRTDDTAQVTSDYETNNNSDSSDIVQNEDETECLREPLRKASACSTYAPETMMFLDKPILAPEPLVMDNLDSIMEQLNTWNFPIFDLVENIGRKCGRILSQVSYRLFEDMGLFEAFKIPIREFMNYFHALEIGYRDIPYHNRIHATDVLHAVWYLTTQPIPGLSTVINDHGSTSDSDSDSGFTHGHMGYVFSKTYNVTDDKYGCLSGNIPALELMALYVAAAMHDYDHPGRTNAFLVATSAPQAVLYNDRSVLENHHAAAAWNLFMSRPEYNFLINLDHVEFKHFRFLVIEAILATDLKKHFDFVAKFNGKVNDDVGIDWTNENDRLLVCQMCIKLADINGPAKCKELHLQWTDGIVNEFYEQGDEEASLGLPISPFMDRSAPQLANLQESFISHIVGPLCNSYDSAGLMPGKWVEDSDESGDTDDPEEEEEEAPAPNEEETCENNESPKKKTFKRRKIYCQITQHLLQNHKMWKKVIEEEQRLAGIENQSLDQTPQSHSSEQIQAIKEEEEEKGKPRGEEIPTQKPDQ

[8] = target: Beta-1 adrenergic receptor (Homo sapiens, UniProt P08588); format: functional
Sequence of Beta-1 adrenergic receptor (P08588 whole entry): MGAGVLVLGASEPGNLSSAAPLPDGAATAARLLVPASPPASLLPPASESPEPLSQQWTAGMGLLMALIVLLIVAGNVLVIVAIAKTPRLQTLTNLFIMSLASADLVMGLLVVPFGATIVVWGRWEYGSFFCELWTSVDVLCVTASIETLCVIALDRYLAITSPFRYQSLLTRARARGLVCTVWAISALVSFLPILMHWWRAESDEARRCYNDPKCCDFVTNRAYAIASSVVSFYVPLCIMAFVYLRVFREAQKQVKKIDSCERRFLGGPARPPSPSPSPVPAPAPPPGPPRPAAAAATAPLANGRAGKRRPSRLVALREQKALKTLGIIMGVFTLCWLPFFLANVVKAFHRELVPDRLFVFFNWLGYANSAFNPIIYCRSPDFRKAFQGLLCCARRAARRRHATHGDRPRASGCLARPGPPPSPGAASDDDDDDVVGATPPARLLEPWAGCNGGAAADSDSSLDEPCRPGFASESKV

[9] = target: Gamma-aminobutyric acid receptor subunit alpha-1 (Rattus norvegicus, UniProt P62813); format: functional
Sequence of Gamma-aminobutyric acid receptor subunit alpha-1 (P62813 whole entry): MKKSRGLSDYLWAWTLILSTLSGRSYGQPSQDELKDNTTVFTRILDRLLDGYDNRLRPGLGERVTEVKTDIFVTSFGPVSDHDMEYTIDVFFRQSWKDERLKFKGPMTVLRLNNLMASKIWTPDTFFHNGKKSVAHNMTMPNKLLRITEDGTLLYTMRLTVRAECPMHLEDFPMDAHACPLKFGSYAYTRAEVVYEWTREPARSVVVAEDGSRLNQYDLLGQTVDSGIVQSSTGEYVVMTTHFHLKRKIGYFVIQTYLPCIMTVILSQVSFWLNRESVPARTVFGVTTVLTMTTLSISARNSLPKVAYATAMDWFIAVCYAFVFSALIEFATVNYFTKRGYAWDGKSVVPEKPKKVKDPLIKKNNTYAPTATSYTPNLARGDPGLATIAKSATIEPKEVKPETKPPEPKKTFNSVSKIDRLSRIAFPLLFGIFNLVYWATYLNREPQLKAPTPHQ

[10] = target: 5-hydroxytryptamine receptor 2A (Homo sapiens, UniProt P28223); format: functional, cell-based
Sequence of 5-hydroxytryptamine receptor 2A (P28223 whole entry): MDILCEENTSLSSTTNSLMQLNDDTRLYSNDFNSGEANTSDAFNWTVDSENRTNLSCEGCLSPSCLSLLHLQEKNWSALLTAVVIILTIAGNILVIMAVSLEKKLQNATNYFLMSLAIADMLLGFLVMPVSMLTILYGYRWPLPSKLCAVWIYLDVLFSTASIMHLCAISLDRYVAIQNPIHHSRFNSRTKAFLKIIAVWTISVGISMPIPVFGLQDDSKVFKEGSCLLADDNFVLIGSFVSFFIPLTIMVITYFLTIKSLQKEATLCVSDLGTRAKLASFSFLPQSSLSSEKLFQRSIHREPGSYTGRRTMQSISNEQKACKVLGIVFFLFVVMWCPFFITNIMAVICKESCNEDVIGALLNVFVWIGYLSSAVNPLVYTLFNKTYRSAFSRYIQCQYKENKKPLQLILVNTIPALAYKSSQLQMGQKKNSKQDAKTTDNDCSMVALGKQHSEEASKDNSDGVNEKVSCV
Also: assay procedure not described here.

Row | Compound | AC50 [1] [µM] | AC50 [2] [µM] | AC50 [3] [µM] | AC50 [4] [µM] | AC50 [5] [µM] | AC50 (Vasopressin V2 receptor) [µM] | AC50 (Vasopressin V1a receptor) [µM] | AC50 [6] [µM] | AC50 (Histamine H2 receptor) [µM] | AC50 [7] [µM] | AC50 [8] [µM] | AC50 [9] [µM] | AC50 [10] [µM]
1 | N=C(N)NC(=O)c1nc(Cl)c(N)nc1N [AMILORIDE] | > 30 | > 30 | > 30 | > 30 | > 30 | > 30 | > 30 | > 30 | > 30 | > 30 | > 30 | > 30 | 
2 | CC(C)(C)NCC(O)COc1ccccc1C#N (configuration not stated) [BUNITROLOL] | > 30 | > 30 |  |  | > 30 |  |  | > 30 | > 30 | > 30 |  | > 30 | > 30
3 | COc1ccc(C(=O)c2ccccc2)c(O)c1 [OXYBENZONE] | > 30 | > 30 |  |  | > 30 |  |  | > 30 | > 30 | > 30 |  | > 30 | > 30
4 | CN(C)[C@@H]1C(O)=C(C(=O)NCN2CCCC2)C(=O)[C@@]2(O)C(O)=C3C(=O)c4c(O)cccc4[C@@](C)(O)[C@H]3C[C@@H]12 [ROLITETRACYCLINE] | > 30 | > 30 | > 10 | 0.653 | > 10 | > 10 | > 10 | > 10 | > 10 | > 30 | > 10 | > 10 | > 30
5 | C[C@]12C=CC(=O)C=C1CC[C@@H]1[C@@H]2[C@@H](O)C[C@@]2(C)[C@H]1CC[C@]2(O)C(=O)CO [PREDNISOLONE] | > 10 | > 30 | > 30 | > 30 | > 10 | > 30 | > 30 | > 10 | > 10 | > 30 | > 10 | > 10 | 
6 | Cc1cn(-c2cc(NC(=O)c3ccc(C)c(Nc4nccc(-c5cnccn5)n4)c3)cc(C(F)(F)F)c2)cn1 [RADOTINIB] |  | > 30 |  | > 30 |  |  |  |  |  | 30 | > 30 |  | > 30
7 | CCC(=O)c1ccc2c(c1)N(CC(C)N(C)C)c1ccccc1S2 (configuration not stated) [PROPIOMAZINE] | > 30 |  | > 10 | > 10 | > 10 | > 10 | > 10 | > 10 | > 10 | > 30 | > 10 | > 10 | 1
8 | Cc1ccc(O)c([C@H](CCN(C(C)C)C(C)C)c2ccccc2)c1 [TOLTERODINE] | > 10 | > 30 |  |  | > 10 |  |  | > 10 | > 10 |  | > 10 | > 10 | 
